Results on 5 molecules are retold here after patent US20240173332A1, “BENZO[…] TREATING OR PREVENTING RESPIRATORY SYNCYTIAL VIRUS INFECTION” (Pfizer Inc., priority 2021, published 2024).

Data set [1] in a line: Hepatocyte stability, human. It is filed as in vitro ADME. The conditions noted are these: cryopreserved pooled hepatocytes, 3 μM compound, 60 min, read-out: Liver Hepatocyte Stability t1/2. As to the method:
(§1) Compounds were subjected to the following assays to investigate liver microsomal stability and hepatocyte stability.
(§2) Cryopreserved pooled hepatocytes were purchased from a reputable commercial supplier and stored in liquid nitrogen prior to use. Williams E media supplemented with 2 mM L-glutamine and 25 mM HEPES and test compound (final substrate concentration 3 μM; final DMSO concentration 0.25%) are pre-incubated at 37° C. prior to the addition of a suspension of cryopreserved hepatocytes (final cell density 0.5 ×10^6 viable cells/mL in Williams E media supplemented with 2 mM L-glutamine and 25 mM HEPES) to initiate the reaction. The final incubation volume is 500 μL. Two control compounds were included with each species, alongside appropriate vehicle control. The reactions were stopped by transferring 50 μL of incubate to 100 μL acetonitrile containing internal standard at the appropriate time points. Samples were removed at 6 time points (0, 5, 15, 30, 45 and 60 min) over the course of a 60 min experiment. The termination plates were centrifuged at 2500 rpm at 4° C. for 30 min to precipitate the protein.
(§3) Following protein precipitation, the sample supernatants were combined in cassettes of up to 4 compounds and analysed using generic LC-MS/MS conditions. From a plot of In peak area ratio (compound peak area/internal standard peak area) against time, the gradient of the line was determined. Subsequently, half-life (t1/2) and intrinsic clearance (CLint) were calculated.

Data set [2] in a line: Liver microsomal stability, dog. The following applies: pooled liver microsomes, pH 7.4, 0.5 mg/mL protein, 1 μM compound, NADPH, read-out: Liver Microsomal Stability t1/2. It is filed as in vitro ADME. The protocol:
as §1
(§4) Pooled liver microsomes were purchased from a reputable commercial supplier and stored at −80° C. prior to use. Microsomes (final protein concentration 0.5 mg/mL), 0.1 M phosphate buffer pH 7.4 and test compound (final substrate concentration 1 μM; final DMSO concentration 0.25%) were pre-incubated at 37° C. prior to the addition of NADPH (final concentration 1 mM) to initiate the reaction. The final incubation volume was 50 μL. A control incubation was included for each compound tested where 0.1 M phosphate buffer pH 7.4 was added instead of NADPH (minus NADPH). Two control compounds were included with each species. All incubations were performed singularly for each test compound. Each compound was incubated for 0, 5, 15, 30 and 45 min. The control (minus NADPH) was incubated for 45 min only. The reactions were stopped by transferring incubate into acetonitrile at the appropriate time points, in a 1:3 ratio. The termination plates are centrifuged at 3,000 rpm for 20 min at 4° C. to precipitate the protein. Following protein precipitation, the sample supernatants were combined in cassettes of up to 4 compounds, internal standard added, and samples analysed by LC-MS/MS. From a plot of In peak area ratio (compound peak area/internal standard peak area) against time, the gradient of the line was determined. Subsequently, half-life (t1/2) and intrinsic clearance (CLint) were calculated.

A further data set is described as follows: Cell cytotoxicity CC50. It is filed as cell-based. The conditions noted are these: human, Hep-G2 cells; mean of at least two experiments unless (n = 1).
The next data set relates to RSV A2. Briefly: RSV plaque reduction assay in Hep-G2 cells. It is filed as cell-based, respiratory syncytial virus (RSV). The conditions noted are these: human respiratory syncytial virus, HepG2, 48 h, Hep-G2 cells, RSV A2, 2 days; mean of at least two experiments; read-out: RSV A2 Plaque EC50. The protocol:
Compounds were subjected to RSV plaque reduction assays according to the following protocol. Plaque EC50 and cell toxicity CC50 values are a mean of at least two experiments and figures are rounded to whole units.
Hep-G2 cells (ECACC, 85011430) were passaged in flasks and seeded in 24-well plates in DMEM containing antibiotics and supplemented with 10% FBS. During inoculation and subsequent incubation, cells were cultured in DMEM containing 2% FBS. 100 plaque forming unit/well of RSV (RSV A2 ECACC, 0709161v) was mixed with eight serial dilutions of compound. Subsequently, 100 μL of the virus/compound mixtures was added to confluent Hep-G2 cell monolayers. The cells and virus/compound mixtures were incubated at 37° C. in a humidified 5% CO2 incubator for 2 h prior to removal of the inoculum and addition of 1 mL of overlay (DMEM containing 2% FBS and 0.8% CMC) containing compound dilutions. The cells and were incubated at 37° C. in a humidified 5% CO2 incubator for 2 days.
Cells were washed with PBS before adding 75/25% v/v EtOH/MeOH, for 3 min. Fixative was removed and plates were washed with PBS. A pre-titrated amount of the primary antibody was added in 200 μL PBS/2% milk powder, and plates incubated for 90 min at 37° C. The plates were washed 3 times with PBS/0.05% Tween20 before addition of rabbit anti-goat horse radish peroxidase in 200 μL PBS/2% milk powder, and incubated for 1 h at 37° C. Following three wash steps with PBS/0.05% Tween20, 200 μL ready-to-use TrueBlue was added and plates were incubated at rt for 10-15 min before washing with water. After removal of water, plates were air-dried in the dark. Plates were scanned and analysed using the Immunospot S6 Macro analyser, which is equipped with BioSpot analysis software for counting immunostained plaques (virospots). Plaque counts were used to calculate % infection relative to the mean of the plaque count in the virus control wells for RSV. The EC50 value was calculated as 50% reduction in signal, respectively, by interpolation of inhibition curves fitted with a 4-parameter nonlinear regression with a variable slope in Dotmatics. Plaque EC50 and cell toxicity CC50 values are a mean of at least two experiments and figures are rounded to whole units.

A short description of data set [3]: In vivo pharmacokinetics in rats (IV and PO). The following applies: male SD rat; for half-life / Vd / clearance / Cmax / AUC(0-t): Sprague Dawley, plasma; for Vd / clearance / Cmax: study IV 1 mg/kg; for Cmax: route not given; for AUC(0-t): read-out: PO AUClast; for F: PO 10 mg/kg vs IV 1 mg/kg. On the set-up: species or system Male rats [Sprague Dawley (SD)]. As to the method:
The pharmacokinetics of compounds were studied in vivo in rats at doses of 1 mg/kg (IV) and 10 mg/kg (PO).
Male rats [Sprague Dawley (SD)] surgically prepared with a jugular vein cannula were treated with experimental compounds via intravenous administration (IV; n=3; 1 mg/kg) or oral administration (PO; n=3; 10 mg/kg). Compounds were formulated as a solution in 40:60 dimethylacetamide:saline (IV administration) and a solution of 10% DMSO, 10% cremaphor in water (80%) (PO administration). […] Serial blood samples were collected via the cannula at 0.02, 0.08, 0.25, 0.5, 1, 2, 4, 6, 8 and 24 h post IV dosing of compound, and at 0.08, 0.25, 0.5, 1, 2, 4, 6, 8 and 24 h post oral dosing of compound, and plasma was prepared by centrifugation and stored immediately at −80° C. Samples were subsequently thawed, prepared for analysis by protein precipitation with acetonitrile, and analysed by tandem LCMS using electrospray ionisation using a matrix-matched calibration curve. PK parameters were calculated from the resulting data.

Data set [4] in a line: Liver microsomal stability, rat. The conditions noted are these: pooled liver microsomes, pH 7.4, 0.5 mg/mL protein, 1 μM compound, NADPH, read-out: Liver Microsomal Stability t1/2. It is filed as in vitro ADME. As to the method: as §1, §4
The nature of data set [5]: Hepatocyte stability, dog. It is filed as in vitro ADME. The conditions noted are these: cryopreserved pooled hepatocytes, 3 μM compound, 60 min, read-out: Liver Hepatocyte Stability t1/2. The protocol:
as §1, §2, §3

The nature of data set [6]: Hepatocyte stability, rat. It is filed as in vitro ADME. The conditions noted are these: cryopreserved pooled hepatocytes, 3 μM compound, 60 min, read-out: Liver Hepatocyte Stability t1/2. As to the method:
as §1, §2, §3

Data set [7] can be described thus: Liver microsomal stability, human. The following applies: pooled liver microsomes, pH 7.4, 0.5 mg/mL protein, 1 μM compound, NADPH, read-out: Liver Microsomal Stability t1/2. It is filed as in vitro ADME. The protocol:
as §1, §4

Another data set relates to RSV. The conditions noted are these: Antimicrobial Agents and Chemotherapy, Sept. 2007, 3346-3353; cited from earlier work.
Where [8] appears, read: IV 1 mg/kg, read-out: IV t1/2 (converted).
The mark [9] stands for this setting: PO 10 mg/kg, read-out: PO t1/2 (converted).

Where two headings read alike, the source gives them in different places. A value given as a limit tells only on which side of the number the result lay.

`CC(C)n1cc(-c2nn3cccnc3c2C(=O)N[C@H]2N=C(c3ccccc3)c3cccc(F)c3NC2=O)cn1` [Example 4, N-[(3S)-9-fluoro-2-oxo-5-phenyl-1,3-dihydro-1,4-benzodiazepin-3-yl]-2-(1-propan-2-ylpyrazol-4-yl)pyrazolo[1,5-a]pyrimidine-3-carboxamide]: the results for the half-life at 3 μM in data set [1], in [5] and in [6] were 3.78 h, 1.4 h and 2.17 h, respectively. In addition, the figures for the half-life at 1 μM in data set [2], in data set [4] and in data set [7] were 2.62 h, 2.63 h and 6.58 h, respectively. For the same molecule, in the data set “Cell cytotoxicity CC50”, the CC50 is above 25000 nM. Further, in the data set with RSV A2, the EC50 came to 37 nM. The half-life in data set [3] (setting [8]) is 4.4 h; in data set [3] (setting [9]), 3.7 h. This molecule also displayed a Vd in data set [3] (PO 10 mg/kg) of 0.49 L/kg. For the same molecule, the clearance in [3] (PO 10 mg/kg) was determined as 1.9 mL/min/kg. In data set [3] (PO 10 mg/kg), this molecule yielded a Cmax of 4790 ng/mL. The AUC(0-t) in data set [3] (PO 10 mg/kg) came out at 57100 ng·h/mL. In data set [3], this molecule yielded an F of 54.6%.

In the case of `O=C(N[C@H]1N=C(c2ccccc2)c2cccc(F)c2NC1=O)c1c(-c2ccc(CO)cc2F)nn2cccnc12` [Example 1, 2-[2-Fluoro-4-(hydroxymethyl)phenyl]-N-[(35)-9-fluoro-2-oxo-5-phenyl-1,3-dihydro-1,4-benzodiazepin-3-yl]pyrazolo[1,5-a]pyrimidine-3-carboxamide], the half-life at 3 μM was 5.55 h in data set [1], 2.62 h in [5] and 1.38 h in data set [6]. Also, the results for the half-life at 1 μM in [2], in [4] and in data set [7] were 10.6 h, 0.69 h and 5.48 h, respectively. In “Cell cytotoxicity CC50”, this molecule had a CC50 above 25000 nM. Moreover, the EC50 with RSV A2 is 18 nM. The half-life in data set [3] (setting [8]) is 1.5 h; in data set [3] (setting [9]), 3.1 h. In data set [3] (PO 10 mg/kg), this molecule gave a Vd of 0.75 L/kg. The molecule also returned a clearance in data set [3] (PO 10 mg/kg) of 11.5 mL/min/kg. Also, the Cmax in data set [3] (PO 10 mg/kg) was determined as 788 ng/mL. Also, the AUC(0-t) in data set [3] (PO 10 mg/kg) came to 3880 ng·h/mL. For the same molecule, the F in [3] was determined as 25.6%.

Turning to `CS(=O)(=O)c1ccc(-c2nn3cccnc3c2C(=O)N[C@H]2N=C(c3ccccc3)c3cccc(F)c3NC2=O)c(F)c1` [Example 7, 2-(2-Fluoro-4-methylsulfonylphenyl)-N-[(3S)-9-fluoro-2-oxo-5-phenyl-1,3-dihydro-1,4-benzodiazepin-3-yl]pyrazolo[1,5-a]pyrimidine-3-carboxamide], the half-life at 3 μM in [1] came to 6.28 h. The CC50 in the data set “Cell cytotoxicity CC50” was above 25000 nM. The EC50 in the data set with RSV A2 came to 9 nM. The half-life in data set [3] (setting [8]) is 1.6 h. Also, in data set [3] (setting [9]), the half-life was 2.5 h. In addition, in [3] (PO 10 mg/kg), the Vd stood at 1.4 L/kg, the clearance amounted to 13.1 mL/min/kg, the Cmax was found to be 2340 ng/mL and the AUC(0-t) was 24800 ng·h/mL. The same molecule had a F in data set [3] of 188%. For the same molecule, the half-life at 3 μM in [5] turned out to be 0.95 h. The half-life at 3 μM in data set [6] is 85.7 h.

With `O=C(Nc1ccccc1F)N[C@H]1N=C(c2ccccc2)c2ccccc2NC1=O` [RSV604], the anti-RSV activity entry with RSV is on record as “sub-micromolar”.

Turning to `O=C(N[C@H]1N=C(c2ccccc2)c2cccc(F)c2NC1=O)c1c(-c2cccc(CO)c2F)nn2cccnc12` [Example 18, 2-[2-Fluoro-3-(hydroxymethyl)phenyl]-N-[(3S)-9-fluoro-2-oxo-5-phenyl-1,3-dihydro-1,4-benzodiazepin-3-yl]pyrazolo[1,5-a]pyrimidine-3-carboxamide], the half-life at 3 μM in data set [1] was above 3 h; in [5] it was above 3 h; in [6], 1.57 h. In addition, the half-life at 1 μM was determined as 6.5 h in data set [2], 0.983 h in data set [4] and 8.83 h in [7]. Further, the 50% cytotoxic concentration (CC50) in the data set “Cell cytotoxicity CC50” was above 25000 nM. Also, the concentration giving a half-maximal response (EC50) in the data set with RSV A2 amounted to 44 nM.
